We go through 96 compounds from ChEMBL document CHEMBL3727361, “Nitrogen bicyclic compounds as inhibitors for Scyl1 and Grk5” (2014).

Structures are written as SMILES.

The test system of the experiment is Beta-TC6. As to the kind of experiment: Increase in insulin release in mouse BetaTC6 cells assessed as relative insulin release activity at 10 uM incubated for 2 to 4 hrs by FRET based HTRF assay relative to sunitinib. The format is functional. For orientation: In TR-FRET formats the signal depends on donor and acceptor labels being close together.
Turning to `Cc1ccccc1-c1nnc2ccc(-c3ccc(C(N)=O)cc3)cn12`, the Activity stood at 20%.
For `Clc1ccc(-c2cnc3cnc(-c4ccncc4)cn23)cc1` the value was 20%; for `c1csc(-c2cnc3cnc(-c4cc5ccccc5s4)cn23)c1`, 50%; for `CN1CCN(C(=O)c2cccc(-c3cnc4cnc(-c5ccc6c(c5)OCO6)cn34)c2)CC1`, 20%.
For `COc1cc(-c2cnc3cnc(-c4ccc(OCCCN(C)C)nc4)cn23)ccc1O` the value was 20%; for `COc1ccc(-c2cnc3cnc(-c4ccc(CO)cc4)cn23)cc1`, 50%; for `FC(F)(F)Oc1cccc(-c2ccc3nnc(-c4ccncc4)n3c2)c1`, 20%.
For `COc1cccc(CC(=O)Nc2cnc3cnc(-c4ccc(Oc5ccccc5)cc4)cn23)c1` the value was 10%; for `COc1cccc(C#Cc2ccc3nnc(-c4cccc(OC(F)(F)F)c4)n3c2)c1`, 20%; for `CN(C)c1cccc(-c2cnc3cnc(-c4ccsc4)cn23)c1`, 50%.
Consider `c1cncc(-c2cnc3ccc(-c4ccoc4)nn23)c1`, for which the Activity amounted to 20%.
As for `COc1ccc(-c2nnc3ccc(-c4cccc(C(=O)N(C)C)c4)cn23)cc1OC`, the figure is 50%; as for `COc1ccc(-c2cnc3cnc(-c4ccc(N)nc4)cn23)cc1`, 20%.
As for `COc1cccc(CC(=O)Nc2cnc3cnc(-c4ccccc4CN(C)C)cn23)c1`, the figure is 20%; as for `Cn1cc(-c2ccc3nnc(-c4ccc5c(c4)OCO5)n3c2)cn1`, 50%; as for `CS(=O)(=O)c1ccc(-c2cnc3ccc(Cc4ccccc4)nn23)cc1`, 10%.
`COc1cc(C#Cc2ccc3nnc(-c4ccc(OCCCN(C)C)cc4)n3c2)cc(OC)c1`: the Activity worked out at 20%.
As for `CCOc1cccc(-c2cn3c(-c4cccc(CO)c4)cnc3cn2)c1`, the figure is 20%; as for `CC(=O)Nc1ccc(-c2cnc3ccc(-c4ccc5c(c4)OCO5)nn23)cc1`, “>=100%”.
For `Cn1cc(-c2cnc3cnc(-c4ccncc4)cn23)cn1` the value was 20%; for `Nc1ccc(-c2cn3c(-c4cccs4)cnc3cn2)cn1`, 20%; for `C(=C\c1cnc2cccnn12)/c1ccccc1`, 20%.
As for `COc1cc(OC)cc(-c2cnc3cnc(-c4ccccc4N(C)C)cn23)c1`, the figure is 20%; as for `COCCNc1ccc2ncc(-c3ccc(C(=O)Nc4ccc(OC)cc4)cc3)n2n1`, 20%.
Turning to `CC(=O)c1cccc(-c2cnc3cnc(-c4cccc(F)c4)cn23)c1`, the Activity worked out at 20%.
As for `Clc1cccc(-c2nnc3ccc(-c4ncccn4)cn23)c1`, the figure is 10%; as for `c1ccc(-c2ccc3ncc(-c4ccc5c(c4)OCO5)n3n2)cc1`, 20%.
As for `COc1ccc(-c2nnc3ccc(-c4cccc(F)c4)cn23)cc1OC`, the entry is “>=100%”; as for `Oc1ccc(-c2cn3c(-c4cccs4)cnc3cn2)cc1`, 50%.
As for `COc1cc(-c2nnc3ccc(-c4cccc(F)c4)cn23)ccc1O`, the figure is 50%; as for `CN(C)CCCNC(=O)c1ccc(-c2ccc3nnc(-c4cccc(C(F)(F)F)c4)n3c2)cc1`, 20%; as for `COc1cncc(-c2cnc3ccc(Cc4ccc(F)cc4)nn23)c1`, 20%.
With `CS(=O)(=O)c1cccc(-c2ccc3nnc(-c4ccccn4)n3c2)c1`, the Activity was found to be 20%.
As for `COc1ccc(-c2ccc3nnc(-c4ccccc4)n3c2)c(C)c1`, the entry is “>=100%”; as for `CC(=O)Nc1cccc(-c2ccc3nnc(-c4ccccc4)n3c2)c1`, 50%.
For `CSc1ccc(-c2cnc3cccnn23)cc1` the value was 10%; for `COc1cc(-c2nnc3ccc(-c4ccccc4C)cn23)ccc1O`, 50%; for `CCOc1cccc(-c2cnc3cccnn23)c1`, 10%.
As for `Oc1cccc(-c2cnc3cnc(-c4ccc(Cl)cc4)cn23)c1`, the figure is 20%; as for `Clc1ccccc1-c1ccc2ncc(-c3cccs3)n2n1`, 10%.
As to `Fc1cccc(-c2cnc3cnc(-c4ccc(Cl)cc4)cn23)c1`, the Activity is listed as 20%.
For `FC(F)(F)Oc1ccc(-c2cn3c(-c4cccs4)cnc3cn2)cc1` the value was 20%; for `CN(C)CCCNC(=O)c1ccc(-c2cn3c(-c4ccc(N(C)C)cc4)cnc3cn2)cc1`, 50%.
As for `COc1ccccc1-c1cn2c(NC(=O)c3ccccc3)cnc2cn1`, the figure is 20%; as for `COc1cc(OC)cc(-c2cnc3cnc(-c4cccc(OC(C)C)c4)cn23)c1`, 20%; as for `O=C(O)CCc1ccc(-c2cnc3cnc(-c4cccc(Cl)c4)cn23)cc1`, 20%.
As for `COc1ccc(-c2cnc3cnc(-c4cccs4)cn23)cc1`, the figure is 20%.
Take `CN1CCN(C(=O)c2ccc(-c3cnc4cnc(/C=C/c5ccccc5)cn34)cc2)CC1`: the Activity is 10%.
As for `O=C(NCCO)c1cccc(-c2cn3c(-c4cccs4)cnc3cn2)c1`, the figure is 20%.
For `CS(=O)(=O)Nc1cccc(-c2cn3c(-c4ccc(Oc5ccccc5)cc4)cnc3cn2)c1` the value was 20%; for `CN1CCN(C(=O)c2cccc(-c3cnc4cnc(-c5ccc6c(ccn6C)c5)cn34)c2)CC1`, 20%; for `Fc1cccc(-c2cnc3cnc(-c4cccs4)cn23)c1`, 20%.
With `COc1ccc(-c2cnc3ccc(NCC4CC4)nn23)cn1`, the Activity is 10%.
For `Oc1cccc(-c2cnc3cnc(-c4cccc(Cl)c4)cn23)c1` the value was 20%.
For `Nc1ccc(-c2cnc3ccc(Cc4ccccc4)nn23)cn1` the value was 20%; for `CC(C)Oc1cccc(-c2cn3c(-c4ccc5c(c4)OCO5)cnc3cn2)c1`, 50%.
On to `CNc1ccc2ncc(-c3ccccc3O)n2n1`, for which the Activity worked out at 20%.
As for `N#Cc1ccc(-c2ccc3nnc(-c4cccc(O)c4)n3c2)cc1`, the figure is 50%; as for `CN(C)C(=O)c1cccc(-c2cn3c(-c4ccc(N(C)C)cc4)cnc3cn2)c1`, 20%; as for `c1cc2cc(-c3ccc4nnc(-c5cscn5)n4c3)ccc2[nH]1`, 50%.
As for `OCC#Cc1ccc2nnc(-c3ccc4c(c3)OCO4)n2c1`, the figure is 20%; as for `CC(=O)c1cccc(-c2cnc3cnc(-c4cccs4)cn23)c1`, 50%.
As for `COc1cccc(-c2cn3c(-c4cccc(O)c4)cnc3cn2)c1F`, the figure is 20%; as for `N#Cc1ccc(-c2cnc3cnc(-c4ccsc4)cn23)cc1`, 20%; as for `CN1CCN(C(=O)c2cccc(-c3cnc4cnc(-c5ccc(CNc6ccccc6)cc5)cn34)c2)CC1`, 10%.
`CS(=O)(=O)c1cccc(-c2ccc3nnc(-c4cccc(OC(F)(F)F)c4)n3c2)c1`: the Activity was 50%.
As for `COc1ccc(-c2nnc3ccc(-c4ccc(S(C)(=O)=O)cc4)cn23)cc1OC`, the figure is 10%.
As for `Cc1ccccc1-c1cn2c(-c3ccc(CCC(=O)O)cc3)cnc2cn1`, the figure is 20%.
For `CC(C)Oc1cccc(-c2cn3c(-c4cccc(CO)c4)cnc3cn2)c1` the value was 20%.
As for `CN1CCN(C(=O)c2cccc(-c3cnc4cnc(-c5ccc(OC(F)(F)F)cc5)cn34)c2)CC1`, the Activity is given as 20%.
As for `O=C(Nc1cnc2cnc(-c3cnn(Cc4ccccc4)c3)cn12)C1CCC1`, the figure is 20%; as for `COc1cc(-c2cn3c(-c4ccc5ncccc5c4)cnc3cn2)ccc1O`, 20%; as for `COc1cccc(CC(=O)Nc2cnc3cnc(-c4cccs4)cn23)c1`, 20%.
As to `Oc1cccc(-c2cnc3ccc(-c4ccc(F)cc4)nn23)c1`, the Activity is 20%.
Take `COc1ccc(-c2nnc3ccc(C#Cc4ccncc4)cn23)cc1OC`: the Activity amounted to 50%.
For `FC(F)(F)c1cccc(-c2cnc3ccc(C4CC4)nn23)c1` the value was 10%; for `OCc1ccc(-c2cnc3ccc(-c4cncnc4)nn23)cc1`, 10%; for `COc1ccc(-c2ccc3nnc(-c4ccccc4C)n3c2)cc1OC`, 50%.
As for `COc1cc(-c2cnc3ccc(NCc4cccc(Cl)c4)nn23)ccc1O`, the figure is 20%; as for `c1cc(-c2cn3c(-c4ccc5c(c4)OCO5)cnc3cn2)cs1`, 50%.
Regarding `CN(C)CCCOc1ccc(-c2nnc3ccc(C#Cc4ccc(C(=O)N(C)C)cc4)cn23)cc1`, the Activity was 20%.
For `COc1cc(CNc2ccc3ncc(-c4ccc(N(C)C)cc4)n3n2)cc(OC)c1OC` the value was 10%; for `Nc1ccc(-c2cn3c(NC(=O)c4ccccc4)cnc3cn2)cc1`, 20%.
As for `CSc1ccccc1-c1cnc2cccnn12`, the figure is 50%; as for `COc1cc(OC)cc(-c2cn3c(-c4ccsc4)cnc3cn2)c1`, 20%; as for `Brc1cnc2ccc(NCCCN3CCOCC3)nn12`, 10%.
As for `c1cncc(CCNc2ccc3ncc(-c4ccc5ccccc5c4)n3n2)c1`, the figure is 10%.
For the compound `CN(C)CCCOc1ccc(-c2nnc3ccc(-c4ccc(Cl)cc4)cn23)cc1`, the Activity amounted to 20%.
For `CCOc1cccc(-c2cn3c(-c4ccc(O)c(OC)c4)cnc3cn2)c1`, the Activity is 50%.
For `O=C(NCCO)c1ccc(-c2cn3c(-c4ccsc4)cnc3cn2)cc1` the value was 10%.
For `N#Cc1ccc(-c2cnc3cnc(-c4ccc(Cl)cc4)cn23)cc1` the value was 50%.
For `FC(F)(F)c1cccc(-c2cnc3ccc(-c4ccncc4)nn23)c1` the value was 20%; for `c1csc(-c2ccc3nnc(-c4ccoc4)n3c2)c1`, 50%.
For `c1cc2c(cc1CNc1ccc3ncc(-c4ccc(N5CCOCC5)cc4)n3n1)OCO2`, the Activity amounted to 20%.
As for `CN(C)c1ccc(-c2cnc3cnc(-c4cccc(NS(C)(=O)=O)c4)cn23)cc1`, the figure is 20%.
For the compound `N#Cc1cccc(-c2cnc3cccnn23)c1`, the Activity turned out to be 20%.
